Data from US7566737B2 (Genfit, priority 2002, dated 2009).

Assays:
[1] = test system: LDL; assay: Protection against LDL oxidation by copper (conjugated diene formation); assay type: biochemical; details: for lag phase of conjugated diene formation / rate of conjugated diene formation: 10^−4M
Experimental: LDL oxidation is an important alteration and plays a predominant role in the establishment and development of atherosclerosis (Jurgens G et al., 1987). […] Unless otherwise indicated, the reagents were from Sigma (St Quentin, France). LDL were prepared according to the method described by (Havel R J et al., 1955). The solutions of test compounds were prepared at 10^−2 M concentration in bicarbonate buffer (pH 9) and diluted in PBS to obtain final concentrations ranging from 0.1 to 100 μM for a total ethanol concentration of […]. Prior to oxidation, EDTA was removed from the LDL preparation by dialysis. Oxidation then took place at 30° C. by addition of 100 μl of 16.6 μM CuSO4 solution to 160 μL of LDL (125 μg protein/ml) and 20 μl of a test compound solution. The formation of dienes, the species under observation, was followed by measuring optical density at 234 nm in the samples treated with the compounds but in the presence or absence of copper. Optical density at 234 nm was measured every 10 minutes for 8 hours in a thermostated spectrophotometer (Tecan Ultra 380). The compounds were considered to have antioxidant activity when they induced a longer lag phase and reduced the rate of oxidation and the amount of dienes formed in comparison with the control sample.

[2] = target: T1, human PPARα (Homo sapiens, UniProt Q07869); assay: PPARα/Gal4 transactivation system; assay type: cell-based; details: for maximum induction factor: at the 10 or 1 μm concentrations
T1 construct: expressed in transfected cells; host or cells: RK13 or COS-7
T1 sequence (Q07869 239-466 limits assumed): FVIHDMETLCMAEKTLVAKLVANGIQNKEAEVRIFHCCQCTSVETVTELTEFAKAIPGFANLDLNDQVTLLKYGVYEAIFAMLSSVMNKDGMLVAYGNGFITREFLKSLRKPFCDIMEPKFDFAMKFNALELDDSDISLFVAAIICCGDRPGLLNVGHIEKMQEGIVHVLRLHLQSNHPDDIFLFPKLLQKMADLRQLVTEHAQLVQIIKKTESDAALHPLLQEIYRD
Experimental: (§1) PPAR activation was tested in vitro in RK13 or COS-7 fibroblast cell lines by measuring the transcriptional activity of chimeras composed of the DNA binding domain of the yeast Gal4 transcription factor and the ligand binding domain of the different PPARs. These latter results were then confirmed in cell lines according to the following protocols.
(§2) Culture protocols: RK13 were from ECACC (Porton Down, UK) and were grown in DMEM medium supplemented with 10% (V/V) fetal calf serum, 100 U/ml penicillin (Gibco, Paisley, UK) and 2 mM L-glutamine (Gibco, Paisley, UK). COS-7 cells were from ATCC and were grown in DMEM medium supplemented with 10% (V/V) fetal calf serum, 1% penicillin/streptomycine (Biochrom, AG), 1% of amino acids (Gibco) and 1% sodium pyruvate (Gibco).
(§3) The culture medium was changed every two days. Cells were kept at 37° C. in a humidified 95% air/5% CO2 atmosphere.
(§4) Description of plasmids used for transfection: The plasmids Gal4(RE)_TkpGL3, pGal4-hPPARα, pGal4-hPPARγ, pGal4-hPPARδ and pGal4-φ have been described in the literature (Raspe E et al., 1999). The pGal4-hPPARα, pGal4-hPPARγ and pGal4-hPPARδ constructs were obtained by cloning into the pGal4-φ vector PCR-amplified DNA fragments corresponding to the DEF domains of the human PPARs nuclear receptors.
(§5) Transfection of RK13: RK13 cells were seeded in 24-well culture dishes at 5×10^4 cells/well and transfected for 2 hours with the reporter plasmid Gal4(RE)_TkpGL3 (50 ng/well), the expression vectors pGal4-φ, pGal4-hPPARα, pGal4-hPPARγ and pGal-hPPARδ (100 ng/well) and the transfection efficiency control vector pRL-CMV (1 ng/well) according to the previously described protocol (Raspe E, Madsen L, Lefebvre A M, Leitersdorf I, Gelman L, Peinado-Onsurbe J, Dallongeville J, Fruchart J C, Berge R and Staels B, 1999), then incubated for 36 hours with the test compounds. RK13 cells were incubated with the different compounds at concentrations of 10, 30 and 100 μM or 1, 10 and 100 μM for 24 hours. At the end of the experiment, the cells were lysed (Gibco, Paisley, UK) and luciferase activity was determined with a Dual-Luciferase™ Reporter Assay System kit (Promega, Madison, Wis., USA) according to the supplier's instructions. The protein content of the cell extracts was then measured with the Bio-Rad Protein Assay (Bio-Rad, Munich, Germany) as directed by the supplier.
(§6) Transfection of COS7: Cells in suspension are transfected, in the presence of 10% (V/V) fetal calf serum, with 150 ng of DNA per well with a pGal4-PPAR/Gal4(RE)_TkpGL3 ratio of 1/10. Cells are then seeded in 96 well plates (4×10^4 cells/well) and incubated for 24 hours at 37° C. Activation with compounds is performed on 24 hours at 37° C. in culture medium without serum. At the end of the activation period, cells are lysed and luciferase activity is determined, using the Steady Glow Luciferase Kit (Promega), according to the supplier's instructions.

[3] = test system: hApoE2 Knock-in transgenic mice; assay: Effects on triglycerides and cholesterol metabolism in vivo; parameters: species or system mouse
Experimental: Treatment of animals: hApoE2 knock-in transgenic mice were kept on a 12-hour light/dark cycle at a constant temperature of 20±3° C. After a 1 week acclimation, mice were separated in groups of 6 animals selected such that the distribution of their body weight and plasmatic lipid levels determined before the experiment were uniform. The test compounds were suspended in carboxymethylcellulose and administered by intragastric gavage at the indicated doses, once a day for 7 or 8 days. Animals had access to food and water ad libitum. At the end of the experiment the animals were weighed and sacrificed under anesthesia. Blood was collected on EDTA. Plasma was prepared by centrifugation at 3000 rpm for 20 minutes. Organs were harvested, frozen in liquid nitrogen and stored at −80° C. for subsequent analysis.
Measurement of serum lipids: Serum lipid concentrations (total cholesterol and triglycerides) were determined by a colorimetric assay (Boehringer, Mannheim, Germany) according to the supplier's instructions.

[4] = target: T2, human PPARγ (Homo sapiens, UniProt P37231); assay: PPARγ/Gal4 transactivation system; assay type: cell-based
T2 construct: expressed in transfected cells; host or cells: RK13 or COS-7
T2 sequence (P37231 238-503 limits assumed): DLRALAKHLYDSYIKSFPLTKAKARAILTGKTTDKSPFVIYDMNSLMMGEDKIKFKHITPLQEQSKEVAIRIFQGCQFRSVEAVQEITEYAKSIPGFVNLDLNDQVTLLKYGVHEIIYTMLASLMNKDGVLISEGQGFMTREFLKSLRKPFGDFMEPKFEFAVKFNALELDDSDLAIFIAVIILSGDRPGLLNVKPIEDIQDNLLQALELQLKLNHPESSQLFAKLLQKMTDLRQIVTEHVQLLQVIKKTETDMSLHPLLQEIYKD
Experimental: as §1, §2, §3, §4, §5, §6

[5] = test system: Human normal primary fibroblasts; assay: Antioxidant properties on cell cultures (carboxy-H2DCFDA fluorescence, AAPH stress), fibroblasts; assay type: cell-based; details: AAPH 750 μM
Experimental: (§7) The reduction in the intensity of the emitted fluorescence signal was determined in cells treated with the compounds in the following manner.
(§8) Prior to stress the cells with an oxidative agent such as AAPH (CAS number 2997-92-4), cells are incubated with compounds of interest at 25 μM for 24 h. Then the culture medium is discarded and cells are rinsed two times with PBS. Cells are then incubated 30 min at 37° C. with a cell-permeant indicator for reactive oxygen species that is nonfluorescent until the acetate groups are removed by intracellular esterases and oxidation occurs within the cell 5-(and-6)-carboxy-2′,7′-dichlorodihydrofluorescein diacetate (carboxy-H2DCFDA). The probes are prepared in PBS and incubated at the final concentration of 25 μM. After the incubation with the probe, cells are rinsed and incubated another 30 min with the oxidative solution containing AAPH at 750 μM in culture medium without phenol red and serum.
(§9) The fluorescence is then measured with a fluorimeter with the following wavelength, […].
(§10) Two different cell types have been tested with the inventive compounds. Human normal primary fibroblasts and HaCat cells which are a human keratinocyte cell line.

[6] = test system: HaCat cells; assay: Antioxidant properties on cell cultures (carboxy-H2DCFDA fluorescence, AAPH stress), keratinocytes; assay type: cell-based, human; details: AAPH 750 μM
Experimental: as §7, §8, §9, §10

[7] = FIG. 1-9, copper alone 80 minutes
[8] = FIG. 1-12, copper alone 120 minutes

Cc1cc(/C=C/C(=O)c2ccc(Cl)cc2O)cc(C)c1OC(C)(C)C(=O)O [Compound 7, 1-[2-hydroxy-4-chlorophenyl]-3-[3,5-dimethyl-4-carboxydimethylmethyloxyphenyl]prop-2-en-1-one]
antioxidant properties on LDL oxidation by copper (in words) ([1]; FIGS. 1-1 to 1-14): antioxidant properties | induction factor (luminescent signal relative to untreated cells) ([2]; 30 μM): 50 | cholesterol in lipoparticle subfraction (exclusion chromatography) ([3]; gavage 200 mg/kg for 7 days): decreased | plasma concentration of cholesterol ([3]; gavage 200 mg/kg for 7 days): decrease | plasma concentration of triglycerides ([3]; gavage 200 mg/kg for 7 days): decrease | triglycerides in lipoparticle subfraction (exclusion chromatography) ([3]; gavage 200 mg/kg for 7 days): decreased

Cc1cc(/C=C/C(=O)c2ccccc2O)cc(C)c1OC(C)(C)C(=O)O [Compound 11, 1-[2-hydroxyphenyl]-3-[3,5-dimethyl-4-carboxydimethylmethyloxyphenyl]prop-2-en-1-one]
induction factor (luminescent signal relative to untreated cells) ([2]; 100 μM): 10

Cc1cc(/C=C/C(=O)c2ccc(Cl)cc2)cc(C)c1OC(C)(C)C(=O)O [Compound 17, 1-[4-chlorophenyl]-3-[3,5-dimethyl-4-carboxydimethylmethyloxyphenyl]prop-2-en-1-one]
lag phase of conjugated diene formation ([1]; FIG. 1-1, copper alone 111 minutes): 203 min | rate of conjugated diene formation ([1]; FIG. 1-2, copper alone 2): 1.7 nmol/min/mg of LDL | induction factor (luminescent signal relative to untreated cells) ([2]; 10 μM): 85 | induction factor (luminescent signal relative to untreated cells) ([2]; 100 μM): 13.8 | maximum induction factor ([4]; 10 μM): 25 | cholesterol in lipoparticle subfraction (exclusion chromatography) ([3]; gavage 200 mg/kg for 7 days): decreased | plasma concentration of cholesterol ([3]; gavage 200 mg/kg for 7 days): decrease | plasma concentration of triglycerides ([3]; gavage 200 mg/kg for 7 days): decrease | triglycerides in lipoparticle subfraction (exclusion chromatography) ([3]; gavage 200 mg/kg for 7 days): decreased

COc1ccccc1C(=O)/C=C/c1cc(C)c(OC(C)(C)C(=O)O)c(C)c1 [Compound 31, 1-[2-methoxyphenyl]-3-[3,5-dimethyl-4-carboxydimethylmethyloxyphenyl]prop-2-en-1-one]
lag phase of conjugated diene formation [1, 7]: 139 min | rate of conjugated diene formation ([1]; FIG. 1-10, copper alone 1.9): 1.6 nmol/min/mg of LDL | induction factor (luminescent signal relative to untreated cells) ([2]; 10 μM): 15.5

CCCCCCOc1ccc(C(=O)/C=C/c2cc(C)c(OC(C)(C)C(=O)O)c(C)c2)cc1 [Compound 33, 1-[4-hexyloxyphenyl]-3-[3,5-dimethyl-4-carboxydimethylmethyloxyphenyl]prop-2-en-1-one]
lag phase of conjugated diene formation [1, 7]: 247 min | rate of conjugated diene formation ([1]; FIG. 1-10, copper alone 1.9): 0.8 nmol/min/mg of LDL | maximum amount of conjugated dienes formed ([1]; FIG. 1-11, copper alone 298): 257 nmol per mg of LDL | antioxidant properties on cell cultures (in words) ([5]; 25 μM for 24 h): antioxidant properties | induction factor (luminescent signal relative to untreated cells) ([2]; 1 μM): 22 | induction factor (luminescent signal relative to untreated cells) ([2]; 10 μM): 44 | induction factor (luminescent signal relative to untreated cells) ([2]; 100 μM): 77 | antioxidant properties on cell cultures (in words) ([6]; 25 μM for 24 h): antioxidant properties | maximum induction factor ([4]; 100 μM): 45.6 | cholesterol in lipoparticle subfraction (exclusion chromatography) ([3]; 50 mg/kg/day for 8 days): decrease | plasma cholesterol ([3]; 50 mg/kg/day for 8 days): decrease | plasma triglycerides ([3]; 50 mg/kg/day for 8 days): decrease | triglycerides in lipoparticle subfraction (exclusion chromatography) ([3]; 50 mg/kg/day for 8 days): decrease

COc1cc(Cl)ccc1C(=O)/C=C/c1cc(C)c(OC(C)(C)C(=O)O)c(C)c1 [Compound 37, 1-[2-methyloxy-4-chlorophenyl]-3-[3,5-dimethyl-4-carboxydimethylmethyloxyphenyl]prop-2-en-1-one]
lag phase of conjugated diene formation [1, 8]: 196 min | rate of conjugated diene formation ([1]; FIG. 1-13, copper alone 1.8): 1.49 nmol/min/mg of LDL | maximum amount of conjugated dienes formed ([1]; FIG. 1-14, copper alone 372): 338 nmol per mg of LDL | maximum induction factor [2]: 27

CCCCCCCc1ccc(C(=O)/C=C/c2cc(C)c(OC(C)(C)C(=O)OC(C)(C)C)c(C)c2)cc1 [Compound 38, 1-[4-heptylphenyl]-3-[3,5-dimethyl-4-tertbutyloxycarbonyldimethylmethyloxyphenyl]prop-2-en-1-one]
lag phase of conjugated diene formation [1, 8]: 284 min | rate of conjugated diene formation ([1]; FIG. 1-13, copper alone 1.8): 0.71 nmol/min/mg of LDL | maximum amount of conjugated dienes formed ([1]; FIG. 1-14, copper alone 372): 244 nmol per mg of LDL | maximum induction factor [2]: 22

Cc1c(C)c2c(c(C)c1O)CCC(C)(C(=O)O)O2 (stereo not drawn) [Trolox, reference compound]
% of oxidative reduction versus control cells ([5]; compounds at 25 μM for 24 h): 60% | % of oxidative reduction versus control cells ([6]; compounds at 25 μM for 24 h): 46%
